Calls of active or inactive are those of the source. No cut-off for these calls is given here.
target: T1, Vitamin D3 receptor (Homo sapiens) (UniProt P11473); test: Enhancement of VDR mediated transcriptional activity in human MCF7 cells; assay type: cell-based
T1 sequence (whole entry): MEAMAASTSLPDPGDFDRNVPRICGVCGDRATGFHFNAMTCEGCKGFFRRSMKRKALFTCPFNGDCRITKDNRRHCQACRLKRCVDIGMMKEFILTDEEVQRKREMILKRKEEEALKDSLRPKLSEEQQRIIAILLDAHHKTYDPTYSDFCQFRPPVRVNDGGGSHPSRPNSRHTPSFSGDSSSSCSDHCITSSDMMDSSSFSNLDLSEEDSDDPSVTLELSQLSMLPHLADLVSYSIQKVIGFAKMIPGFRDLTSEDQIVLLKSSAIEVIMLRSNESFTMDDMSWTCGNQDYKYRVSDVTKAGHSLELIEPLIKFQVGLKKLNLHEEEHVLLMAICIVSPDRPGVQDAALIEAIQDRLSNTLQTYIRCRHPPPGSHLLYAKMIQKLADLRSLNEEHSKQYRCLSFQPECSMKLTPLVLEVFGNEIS

Activity, active:
C=C1/C(=C\C=C2/CCC[C@]3(C)[C@@H]([C@H](C)CCCC(C)(C)O)CC[C@@H]23)C[C@@H](O)[C@H](CCCO)[C@H]1CO
C=C1/C(=C\C=C2/CCC[C@]3(C)[C@@H]([C@H](C)CCCC(C)(C)O)CC[C@@H]23)C[C@@H](O)[C@H](CCCO)[C@@H]1O
C=C1/C(=C\C=C2/CCC[C@]3(C)[C@@H]([C@H](C)CCCC(C)(C)O)CC[C@@H]23)C[C@@H](O)[C@H](CCCO)[C@@H]1CO
C=C1C[C@@H](CCCO)[C@H](O)C/C1=C/C=C1\CCC[C@]2(C)[C@@H]([C@H](C)CCCC(C)(C)O)CC[C@@H]12

Reference: ChEMBL document CHEMBL1143991, “The 2alpha-(3-hydroxypropyl) group as an active motif in vitamin D3 analogues as agonists of the mutant vitamin D receptor (Arg274Leu)” (Bioorg Med Chem, 2008)
